Patent US20240315958A1, “METHOD AND DEVICE FOR PROVIDING EFFECTIVE CONTRACEPTION” (Chemo Research, S.L., priority 2023, published 2024)

Columns and labels:
women = settings: POP; desogestrel 0.075 mg, LNG 0.030 mg; cited from earlier work
[1] = oral administration; cited from earlier work
[2] = test system: healthy female subjects aged 18-35 years; assay: Inhibition of ovulation / ovarian activity by Hoogland score, phase 2 clinical trial; format: in vivo, human; settings: 75 μg/day of levonorgestrel, vaginal
Protocol: The study consists of 4 phases: • Screening phase (minimum of 4 weeks and maximum of 8 weeks if washout cycle was needed). • Pre-treatment cycle (28 days) and randomization. • Treatment cycle consisting of 56 treatment days (2 cycles, 28 days per cycle). • Post-treatment cycle (28 days).
The inhibition of ovulation was determined by the calculation of the Hoogland Score, which combined the measurement of follicle size in mm by TVU and progesterone/estradiol serum concentration in nmol/L (in case an ovulation was suspected sonographically in TC1 or TC2, it was confirmed by blood progesterone levels and reflected by Landgren Score).
Primary endpoint analysis: the inhibition of ovulation (Yes, No), was analyzed through a logistic regression model to compare inhibition of ovulation across treatment groups in which BMI was included as covariate. Adjusted odds ratios (ORs) with their two-sided 95% CI were calculated. No hypothesis testing was performed.

[3] = test system: healthy female subjects aged 18-35 years; assay: Return of ovulation in post-treatment cycle; format: in vivo, human; settings: FAS; 28-day post-treatment cycle

| SMILES | Cycles with ovulation inhibited (women) | Bioavailability [1] | Ovulation inhibition [2] | Participants with return of ovulation during post-treatment, % [3] |
| --- | --- | --- | --- | --- |
| C#C[C@]1(O)CC[C@H]2[C@@H]3CCC4=CCCC[C@@H]4[C@H]3C(=C)C[C@@]21CC [desogestrel] | at least 98% |  |  |  |
| C#C[C@]1(O)CC[C@H]2[C@@H]3CCC4=CC(=O)CC[C@@H]4[C@H]3CC[C@@]21CC [levonorgestrel] |  | ~100% | 100% | more than 80% |
